Read-outs that look alike come from different tables or passages of the source.
Assays:
CUTLL1 cells = experiment: Cell viability (MTT/colorimetric proliferation) assay; assay type: cell-based, human; settings: for effect of γ-secretase inhibition on the apoptotic response triggered by the drug: CUTLL1, 100 nM CompE or vehicle, increasing drug concentrations
Procedure: FIG. 1. GSIs reverse glucocorticoid resistance in T-ALL cells. (a-c). […] Statistical significance was assessed with Student's t-test.
FIG. 7. Analysis of the effects of GSI treatment in chemotherapy response. Cell viability analysis in the CUTLL1 cells treated with 100 nM CompE or vehicle only in presence of increasing concentrations of etoposide, methotrexate, L-asparaginase and vincristine. Cell viability was analyzed by an MTT assay and cytotoxicity data was represented as percentage of viable cells compared with non-treated controls. Data are means±s.d. of triplicate experiments.
Proliferation and cell size assays.

Klf4 = Klf4 expression in small intestine of treated mice; assay type: in vivo
Excerpt: KLF4 regulation by NOTCH signaling in the gut. (a,b) Immunohistochemistry analysis of Klf4 expression in small intestine of mice treated with dexamethasone, DBZ or the combination of dexamethasone plus DBZ for 5 days. Scale bars represent 100 μm. (c) Real-time PCR analysis of Klf4 transcript levels in small intestine of mice treated with dexamethasone, DBZ or the combination of dexamethasone plus DBZ for 5 and 10 days. Gapdh levels were used as a reference control. Data are means±s.d. of three animals per group.
Quantitative real-time PCR. […] Total RNA from mouse tissues was extracted using Trizol reagent (Invitrogen). cDNA was generated with the ThermoScript RT-PCR system (Invitrogen) and analyzed by quantitative real-time PCR using SYBR Green RT-PCR Core Reagents kit and the 7300 Real-Time PCR System (Applied Biosystems). Relative expression levels were normalized with GAPDH expression used as a reference control.
Mouse toxicity model. To analyze the effects of GSI cotreatment with dexamethasone in healthy (non-leukemia-bearing) mice, we treated C57/Bl6 female animals (3 mice per group) daily with vehicle (DMSO), dexamethasone (15 mg/kg), DBZ (10 μmol/kg) and dexamethasone (15 mg/kg) plus DBZ (10 μmol/kg) by intraperitoneal injection for 5 and 10 days. […]

[1] = mouse, in vivo
[2] = Pharmacokinetic analysis of DBZ in mouse plasma; assay type: in vivo; settings: DBZ 2 μmol/kg tail vein; mice pre-treated with dexamethasone 15 mg/kg for 5 days vs vehicle
Procedure: Pharmacokinetic and drug metabolism studies. […] The concentration of DBZ in mouse plasma was determined using a standard curve (analyte peak area vs. concentration) generated with calibration standard pools.

[3] = DBZ metabolism by liver microsomes in vitro; assay type: in vitro ADME, mouse; settings: in the presence of dexamethasone vs vehicle, 37° C.
Procedure: To analyze the effects of dexamethasone in the hepatic metabolism of DBZ, mouse liver microsomes (Xenotech) were incubated with DBZ or dexamethasone plus DBZ at 37° C. and DBZ concentrations were analyzed by LC/MS/MS mass spectrometry in samples taken at serial timepoints using a standard curve prepared in incubation buffer with heat inactivated liver microsomes.

[4] = tested on: CUTLL1 cells expressing luciferase
Procedure: Leukemia xenograft model. Before intravenous xenograft transplantation, recipient animals were irradiated with a total x-ray dose of 300 cGy. Two million CUTLL1 cells expressing luciferase were injected via the tail vein. After a 3-week window for tumor engraftment, mice with homogeneous tumor burdens were segregated into treatment groups (8 animals per group) and treated daily with vehicle (DMSO), dexamethasone (15 mg/kg), DBZ (10 μmol/kg) or dexamethasone (15 mg/kg) plus DBZ (10 μmol/kg) by intraperitoneal injection for 14 days. Disease progression/response was evaluated weekly using bioimaging as described above by integrating the photonic flux (photons per second) through a region around each mouse. Animals were followed up for up to 10 weeks. At the end of the observation period, single cell suspensions from the spleen of surviving animals were analyzed for the presence of leukemic cells by flow cytometry after staining with human anti-CD45-FITC (BD Biosciences).

CUTLL1 T-ALL xenografts = experiment: Subcutaneous xenograft model with in vivo bioimaging; parameters: species or system NOD/SCID mice; settings: 4 days of daily i.p. treatment; dexamethasone 15 mg/kg, DBZ 10 μmol/kg
Procedure: Subcutaneous xenograft model and in vivo imaging. […] For subcutaneous xenograft experiments, 2.5×10^6 T-ALL cells embedded in matrigel (BD Biosciences) were injected in the flank. After 1 week, mice were segregated into treatment groups (6 animals per group) and treated daily with vehicle (DMSO), dexamethasone (15 mg/kg), DBZ (10 μmol/kg) or dexamethasone (15 mg/kg) plus DBZ (10 μmol/kg) by intraperitoneal injection. For imaging studies, mice were anesthetized by isoflurane inhalation and injected with D-luciferin at 50 mg/Kg (Xenogen) intraperitoneally. Photonic emission was imaged with the In Vivo Imaging System (IVIS, Xenogen) with a collection time of 1 minute. Tumor bioluminescence was quantified by integrating the photonic flux (photons per second) through a region encircling each tumor as determined by the LIVING IMAGES software package (Xenogen).

PARP cleavage = experiment: Western blot analysis of PARP cleavage in CUTLL1 cells; assay type: cell-based, human
Procedure: (§1) FIG. 1. […] (a-c). […] (e) Percentage of apoptotic cells (annexinV positive/PI negative) in CUTLL1 (72 hours), KOPTK1 (48 hours) and TALL1 cells (72 hours) treated with DMSO (control), CompE (100 nM), dexamethasone (1 μM) and dexamethasone (1 μM) plus CompE (100 nM). […] Data in (a-f) are means±standard deviation (s.d.) of triplicate experiments. Statistical significance was assessed with Student's t-test.
Western blot analysis. Antibodies against glucocorticoid receptor (E-20, Santa Cruz Biotechnology), BIM (Cell Signaling Technologies); BMF (BD Bioscience) and α-actin (C-11, Santa Cruz Biotechnology) were used in immunoblot assays following manufacturer instructions.

[5] = Mouse toxicity model (histology, immunohistochemistry, flow cytometry); settings: 5 days of treatment
KOPTK1 cells = experiment: Cell viability assay; assay type: cell-based, human
Procedure: as §1
(§2) Proliferation and cell size assays. Cell growth ratios were determined by a colorimetric assay using the Cell Proliferation Kit I (MU) (Roche) in cell lines treated with different antileukemic drugs in the presence or absence of CompE (100 nM). The range of concentrations used in these experiments was: dexamethasone (10^−10 to […]), etoposide (10^−10 to 10^−4 M), methotrexate (10^−10 to 10^−4 M), L-Asparaginase (10^−8 to 10^−2 g/l) and vincristine (10^−12 to 10^−6 M).

TALL1 cells = experiment: Cell viability assay; assay type: cell-based, human
Procedure: as §1, §2

NOTCH1 signaling = NOTCH1 signaling in CUTLL1 cells; assay type: cell-based, human; settings: CUTLL1, CompE 72 hours

## CN(Cc1cnc2nc(N)nc(N)c2n1)c1ccc(C(=O)N[C@@H](CCC(=O)O)C(=O)O)cc1 [methotrexate]
CUTLL1 cells
  effect of γ-secretase inhibition on the apoptotic response triggered by the drug: did not influence the apoptotic responses

## C[C@H](NC(=O)Cc1cc(F)cc(F)c1)C(=O)NC1C(=O)N(C)c2ccccc2-c2ccccc21 (stereo partly drawn) [DBZ, (2S)-2-[2-(3,5-difluorophenyl)-acetylamino]-N-(5-methyl-6-oxo-6,7-dihydro-5H-dibenzo[b,d]azepin-7-yl)-propionamide]
Klf4; 5 and 10 days
  Klf4 expression by RT-PCR: gradual increase of Klf4 expression
Klf4; 5 days
  KLF4 expression by immunohistochemistry: marked increased in KLF4 staining
[1]
  histopathology of the gut after 5 days: moderate secretory metaplasia with increased number of goblet cells
  intestinal proliferation (Ki67 staining): marked reduction in proliferation
  spleen histology / cellularity: disappearance of the marginal zone in the white pulp
  thymus histology / cellularity: thymic atrophy with loss of the lymphoid cells from the cortex
[2]
  clearance of DBZ in vivo: reduced the clearance of DBZ
[3]
  DBZ metabolism by liver microsomes: decrease in DBZ metabolism
[4]; daily i.p. for 14 days
  toxicity in leukemia-bearing mice (mortality, weight loss): accelerated mortality associated with weight loss due to GSI toxicity
[4]; end of the observation period (10 weeks), vs. controls
  survival: inferior outcome
CUTLL1 T-ALL xenografts
  tumor growth / tumor burden by bioimaging: moderate delay in tumor growth

## COc1cc([C@@H]2c3cc4c(cc3[C@@H](O[C@@H]3O[C@@H]5CO[C@@H](C)O[C@H]5[C@H](O)[C@H]3O)[C@H]3COC(=O)[C@H]23)OCO4)cc(OC)c1O [etoposide]
CUTLL1 cells
  effect of γ-secretase inhibition on the apoptotic response triggered by the drug: did not influence the apoptotic responses

## CC[C@]1(O)C[C@H]2CN(CCc3c([nH]c4ccccc34)[C@@](C(=O)OC)(c3cc4c(cc3OC)N(C=O)[C@H]3[C@@](O)(C(=O)OC)[C@H](OC(C)=O)[C@]5(CC)C=CCN6CC[C@]43[C@@H]65)C2)C1 [vincristine]
CUTLL1 cells
  effect of γ-secretase inhibition on the apoptotic response triggered by the drug: did not influence the apoptotic responses

## Z-VAD
PARP cleavage; CUTLL1, Western blot and annexin V-PI staining
  effect on PARP cleavage and apoptosis triggered by CompE plus dexamethasone: reversed the induction of PARP cleavage and apoptosis

## C[C@@H]1C[C@H]2[C@@H]3CCC4=CC(=O)C=C[C@]4(C)[C@@]3(F)[C@@H](O)C[C@]2(C)[C@@]1(O)C(=O)CO [dexamethasone]
[5]
  spleen histology / cellularity: moderate atrophy of the white pulp with preservation of the marginal zone and disorganization of the red pulp
  thymus histology / cellularity: thymic atrophy with loss of the lymphoid cells from the cortex
[5]; small intestine, H&E and PAS
  histopathology of the gut after 5 days: no histopathological changes in the gut
CUTLL1 cells; Homo sapiens, CUTLL1 cells, 72 hours, dexamethasone in the presence of CompE (100 nM)
  IC50: 77 nM

## C[C@H](NC(=O)Cc1cc(F)cc(F)c1)C(=O)N[C@H]1N=C(c2ccccc2)c2ccccc2N(C)C1=O [CompE]
PARP cleavage; CUTLL1
  PARP cleavage (Western blot): no significant increase in PARP cleavage
KOPTK1 cells
  cell response to CompE treatment alone: G1 cell cycle arrest
TALL1 cells
  cell response to CompE treatment alone: G1 cell cycle arrest
NOTCH1 signaling
  NOTCH1 signaling: effectively blocks NOTCH1 signaling
CUTLL1 cells; CUTLL1, 72 hours
  cell response to CompE alone (cell cycle, apoptosis): modest cytostatic response characterized by G1 cell cycle arrest with little or no apoptosis

B1: L-asparaginase: antineoplastic drug from Roche; inhibition of protein biosynthesis (protein, UniProt P00805 23-348, looked up)
L-asparaginase 2: LPNITILATGGTIAGGGDSATKSNYTVGKVGVENLVNAVPQLKDIANVKGEQVVNIGSQDMNDNVWLTLAKKINTDCDKTDGFVITHGTDTMEETAYFLDLTVKCDKPVVMVGAMRPSTSMSADGPFNLYNAVVTAADKASANRGVLVVMNDTVLDGRDVTKTNTTDVATFKSVNYGPLGYIHNGKIDYQRTPARKHTSDTPFDVSKLNELPKVGIVYNYANASDLPAKALVDAGYDGIVSAGVGNGNLYKSVFDTLATAAKTGTAVVRSSRVPTGATTQDAEVDDAKYGFVASGTLNPQKARVLLQLALTQTKDPQQIQQIFNQY
CUTLL1 cells
  effect of γ-secretase inhibition on the apoptotic response triggered by the drug: did not influence the apoptotic responses
